Source: US11576918B2, “Pharmaceutical composition and extract of Dendrobii Caulis with eye care effect and uses of preparing the same thereof” (AMX Pharma Inc., priority 2019, dated 2023)
Like-named read-outs stand apart in the source and are kept apart here.

Key:
retinal damage = conditions: absence of oxygen; recent study; cited from earlier work
optic nerve cell strains = conditions: some studies; cited from earlier work
ARPE-19 cells = assay type: cell-based; set-up: protective activity / toxic reaction: dose or concentration left out as unconfirmed; conditions: for protection effect (cell viability): 500 μM hydrogen peroxide, 24 h pre-treatment
Protocol: (§1) The present experiment took human retinal cell (ARPE-19) and rat retinal ganglion cells (RGC-5) as model cell lines. ARPE-19 cells were cultured in DMEM-F12 medium containing 10% fetal bovine serum (FBS), 0.2% sodium bicarbonate and antibiotics (penicillin 100 units/ml, streptomycin 100 μg/ml); RGC-5 were cultured in DMEM medium containing 10% fetal bovine serum (FBS) and antibiotics (penicillin 100 units/ml, streptomycin 100 μg/ml).
(§2) ARPE-19 and RGC-5 cells were seeded in 96-well plate. After 1 day, the cells were pre-treated with different concentrations of Dendrobii Caulis extract (A or A-2) or compounds 1-4 for 24 hours, and then exposed to (1) hydrogen peroxide (H2O2; 500 μM)) or (2) hypoxic environment or (3) ultraviolet (UV) irradiation (30 μJ/cm^2; three consecutive shots, for 60 seconds each with 60 second intervals, to trigger cell death. After 24-h culture, medium was removed and replaced with 10% precooled trichloroacetic acid (TCA) to fix cells at 4° C. for 1 h, then washed with ddH2O and dried. Next, 0.4% SRB 100 μl (w/v, in 1% acetic acid) was added to each well to stain the cells for 60 minutes, then washed several times with 1% acetic acid and dried plate.—The SRB in cells was dissolved in 150 μl of 10 mM Tris-HCl and measured the absorbance at 540 nm in an ELISA reader. The survival rate was calculated by comparing each treatment with the untreated control group as the 100% survival rate.

zebrafish cataract = assay: UVC-induced zebrafish cataract test; assay type: in vivo
Protocol: Zebrafish were randomly grouped (12 for each group) into blank control group, UVC irradiation group (300 μJ/cm^2) and UVC irradiation+treating group with A-2 at 0.495, 0.99, and 4.95 mg/ml three dosages or with compound 1 at 0.1 and 1.0 mM two dosages. The zebrafish were pre-fed with A-2 or compound 1 for one week, then subjected to UVC irradiation to observe the crystal change of the zebrafish daily. Before irradiating with UVC, the zebrafish is under anesthesia to expose only its eye to UVC (300 μJ/cm^2) for about 3 minutes, consecutively holding for seven days. The zebrafish eyes were observed every day. The severity of zebrafish cataract was scored from 1 to 3, depending on the clear level of the crystal body, in which the higher score represents the more turbidity of the crystal body. The scores are then plotted.

RGC-5 cells = assay type: cell-based; set-up: toxic reaction / protective activity: dose or concentration left out as unconfirmed; conditions: for protection effect (cell viability): 500 μM hydrogen peroxide, 24 h pre-treatment
Protocol: as §1, §2

[1] = 1-10 mM, hydrogen peroxide, hypoxia or UV treatment
[2] = hydrogen peroxide, hypoxia or UV irradiation
[3] = hydrogen peroxide, hypoxia or UV treatment
[4] = hydrogen peroxide and ultraviolet light

For `COc1cc(CCc2cc(OC)c(O)c(OC)c2)ccc1O` [moscatilin], which “protection of retinal damage” value (retinal damage) is on record?
Its value is “can protect retinal damage in the absence of oxygen”.

What about the “toxicity to optic nerve cell strains” value (optic nerve cell strains) of the same compound?
Its value is “toxic”.

Which results are given for `CC(C)(O)[C@H]1C2C(=O)OC1[C@@H](O)[C@]1(C)C2CC[C@H]1COC1OC(CO)C(O)C(O)C1O` (stereo partly drawn) [compound 1, 2β, 3β, 11, 12-tetrahydroxypicrotoxan-3(15)-olide 11-O-β-D-glucopyranoside]?
toxic reaction (ARPE-19 cells): no toxic reaction; protection effect (cell viability) (ARPE-19 cells; hypoxia or UV irradiation): can protect; concentration dependence of protective activity (ARPE-19 cells; [1]): concentration-dependent protective activity; protective effect compared with lutein (ARPE-19 cells; [2]): superior to lutein; protective activity (ARPE-19 cells; [3]): more than 80%; occurrence of UV-induced cataract (zebrafish cataract; 1 mM, fourth day): almost no cataract occurred; occurrence of UV-induced cataract (zebrafish cataract; 0.1 and 1.0 mM, pre-fed one week): can significantly reduce the occurrence of zebrafish cataract; toxic reaction (RGC-5 cells): no toxic reaction; protection effect (cell viability) (RGC-5 cells; hypoxia or UV irradiation): can protect; concentration dependence of protective activity (RGC-5 cells; [1]): concentration-dependent protective activity; protective effect compared with lutein (RGC-5 cells; [2]): superior to lutein; protective activity (RGC-5 cells; [3]): more than 80%

Which “protection effect (cell viability)” value (ARPE-19 cells; hypoxia or UV irradiation) does the source give for `CC(C)[C@@H]1[C@H]2OC(=O)[C@@H]1[C@@H]1CC[C@@H]3CN(C)[C@H]2[C@@]31C` [compound 3, dendrobine] here?
Its value is “does not show enough protective activity”.

And the “protection effect (cell viability)” value (RGC-5 cells; hypoxia or UV irradiation)?
The value was “does not show enough protective activity”.

For `CC(C)(O)[C@H]1C2C(=O)OC1[C@@H](O)[C@]1(C)C2CC[C@H]1CO` (stereo partly drawn) [compound 2, 2β, 3β, 11, 12-tetrahydroxypicrotoxan-3 (15)-olide], which “protection (cell viability)” value (ARPE-19 cells; [4]) is on record?
Its value is “can also protect”.

And the “protective effect compared with lutein” value (ARPE-19 cells; [4])?
Its value is “comparable to lutein”.

What about the “protection (cell viability)” value (RGC-5 cells; [4]) of the same compound?
The value was “can also protect”.

And the “protective effect compared with lutein” value (RGC-5 cells; [4])?
The value was “comparable to lutein”.
